Experimental data: a melting point compilation (Tetko et al.; mined from patent text by program, amines drawn as free bases though some values may be those of a salt)

| Structure (SMILES) | melting point [°C] |
| --- | --- |
| O=C(O)c1cn(-c2nccs2)c2c(F)c(F)c(F)cc2c1=O | 198 to 200 |
| NC(=O)N1C(=O)C(=C(OCOC(=O)COCC(=O)OCc2ccccc2)c2cccs2)c2cc(F)c(Cl)cc21 | 122 |
| COC(=O)C(Oc1ccc(Cl)c2c1CCCC2)c1ccc(Oc2ccc(Cl)cc2)cc1 (stereo not drawn) | 87.5 to 90 |
| COc1ccc(C(=NOCC(=O)O)c2ccc(OC)cc2)cc1 | 105 to 107 |
| Cc1cccc(-c2[nH]c(C(C)C)nc2-c2cccc(-c3ccc4c(c3)CCS4(=O)=O)c2)n1 | 128 to 131 |
| O=Cc1cn(-c2c(Cl)cc(C(F)(F)F)cc2Cl)c2ccccc12 | 167 to 169 |
| COc1ccc(C2CC(O)(c3ccc(OC4CCCCO4)cc3)C2)cc1 (stereo not drawn) | 72 to 75 |
| c1ccc2c(c1)C[C@H]1Cc3ccccc3[C@H]1O2 (relative stereo) | 59 to 60 |
| CCOC(=O)C1=C(C(F)(F)F)Nc2n[nH]cc2C1c1ccsc1 (stereo not drawn) | 140 to 145 |
| Cc1c(-c2ccnn2-c2ccc(C#N)cc2)nc(C(N)=O)c(=O)n1-c1cccc(C(F)(F)F)c1 | 264 |
| C=CC(O)CCCC(O)CCCC1(C)OCCO1 (stereo not drawn) | 52 to 54 |
| COc1ccc(-n2nc(Sc3ccc4ccccc4c3)c(C)c(C#N)c2=O)cc1 | 169 to 170 |
| CCOC(=O)c1c(Cc2nc[nH]n2)nc2sc3cnccc3c2c1-c1ccc(OC)c(OC)c1 | 172 to 174 |
| N#CC1(N2CCCC2)CCC2(CC1)OCCO2 | 65 to 67 |
| O=C1CCC2(CC1)CCC(O)CC2 | 65 to 67 |
| CNS(=O)(=O)c1cscc1CO | 118 to 119 |
| CCCCn1c(=O)c(NC(=O)Nc2c(C(C)C)cccc2C(C)C)c(-c2cccc(OCCC)c2)c2cccnc21 | 154 to 156 |
| CC(=O)Oc1c(C(C)(C)C)cc(C=[N+]([O-])CC(C)C)cc1C(C)(C)C | 177 to 180 |
| N#Cc1cccc(-n2ccc3cc(Cl)ccc32)c1 | 120 to 122 |
| O=C(O)CCCCCCCSc1ccc(Cl)cc1 | 92 to 93 |

| Structure (SMILES) | melting point [°C] |
| --- | --- |
| COc1ccc(-c2[nH]c3ncnc(Nc4cccc(Cl)c4)c3c2C)cc1 | 265 to 268 |
| C=C(c1ccc(C#N)cc1)c1cncs1 | 71 to 73 |
| CC(C)CC(=O)C(=O)NCC(=O)c1ccccc1 | 193 to 195 |
| COc1cc(C#CC(=O)O)cc(OC)c1OCc1ccccc1 | 115 to 116 |
| CCOC(=O)c1ccc(-c2nc(COc3ccc(COc4nn(-c5ccccc5)cc4/C=C\c4csc(CC)n4)cc3OC)c(C)o2)o1 | 133 to 135 |
| Cc1nc(-c2ccccc2)nc(-c2ccncc2)c1C | 152 to 153 |
| COc1ccc2cc(CN(C)C(=O)c3oc4ccccc4c3C)ccc2c1Br | 138 to 140 |
| CC(C)(C)c1cccc(S(=O)(=O)n2c(Cc3ccc(C(=O)NS(=O)(=O)c4ccccc4)cc3)cc3cc(C(F)(F)F)ccc32)c1 | 99 |
| C#Cc1cnc(OCCOc2ncnc(NS(=O)(=O)c3ccc(C(C)(C)C)cc3)c2-c2ccc(C)cc2)nc1 | 207 to 210 |
| Cc1cccc(NC(=O)NCC(=O)N(CC(=O)OCc2ccccc2)c2ccccc2)c1 | 140 |
| Cc1csc(-c2c(C)c(NC(=O)CC(C)(C)C)c(C)c3c2OCC3c2ccc(C(C)C)cc2)n1 (stereo not drawn) | 240 to 241 |
| N#Cc1ccc(COc2cccc(OCc3ccc4ccccc4n3)c2)cc1 | 112 |
| CC(C)(C)c1ccc(-c2ccc3nncn3n2)cc1 | 270 to 275 |
| CC(C)N(CC(O)CC(c1ccccc1)c1ccccc1)C(C)C (stereo not drawn) | 55 to 59 |
| Cc1ccc2nc(S)sc2c1 | 179 to 181 |
| Cc1cc(Cn2cncc2C)cc2c1Cc1c(-c3ccsc3)n[nH]c1-2 | 260 to 264 |
| OCC1Cc2c(c(Cl)cc3c(-c4ccccc4Cl)noc23)O1 (stereo not drawn) | 162 to 163 |
| Cc1ccc(C)c(C(=O)C=Cc2ccccc2C(=O)Cl)c1 | 96 to 98 |
| N#Cc1c(Oc2ccc(Oc3ccc(N)cc3)cc2)cccc1Oc1ccc(Oc2ccc(N)cc2)cc1 | 233 to 234 |
| CCCCN(CCCC)CC(=O)N1c2ccccc2N(CCCC)C(=O)c2cnc(-c3ccccc3)nc21 | 103 to 104 |

Next, values leading:

| melting point [°C] | Structure (SMILES) |
| --- | --- |
| 160 to 161 | O=C1CCC(C(=O)N2CCC(Cc3ccccc3)CC2)N1 (stereo not drawn) |
| 175 to 176 | COC(=O)c1ccc(Cc2c(Cl)n(C)c3cc(Cl)c(CC(C)NC(=O)N(C)C)cc23)c(OC)c1 (stereo not drawn) |
| 122 to 124 | CC1=C(C(=O)Nc2ccc(Cl)c(C(=O)OC(C)C)c2)SCCS1 |
| 162 to 164 | Cc1cc(=S)cc(C)n1CCN |
| 146 to 148 | O=C(Nc1ccc(-n2nc(C(F)(F)F)cc2C(F)(F)F)cc1)C1=CCCCC1 |
| 93 to 95 | CCOc1ccc(OCCN2CCN(c3cc(Cl)nnc3Cl)CC2)cc1 |
| 182 to 184 | COc1ccc(CC2CCC3=C(C2)CC(C)C(=O)N3)cc1 (stereo not drawn) |
| 233 to 235 | Cc1cccc(C)c1N1CC(=O)N(c2c(C)cccc2C)CC1=O |
| 181 to 183 | CS(=O)CCN1CCC2(CC1)CC(=O)c1cc(NS(C)(=O)=O)ccc1O2 (stereo not drawn) |
| 95 to 96 | CCCC1(C)OC(=O)C(OC(C)C)=C1c1ccc(S(C)(=O)=O)cc1 (stereo not drawn) |
| 265 to 272 | CC1(CNC(=O)C(F)(F)F)CN(c2cc3c(cc2F)c(=O)c(C(=O)O)cn3C2CC2)C1 |
| 168 to 171 | Cc1c(-c2ccc(O)cc2)n(Cc2ccc(OCCN3CCCCCC3)cc2)c2ccc(O)cc12 |
| 132 | C=CC1CCC(C2CCC3c4ccc(OCC)c(F)c4OC3C2)CC1 (stereo not drawn) |
| 132 to 133 | Cc1cccc(Cn2cc(-c3cn(C4CC(O)C(CO)O4)c(=O)[nH]c3=O)nn2)c1 (stereo not drawn) |
| 166 to 168 | Cc1cc(-c2c(-c3ccc(S(C)(=O)=O)cc3)cnn(-c3ccc(F)c(F)c3)c2=O)ccc1F |
| 239 to 240 | CC1(C)CC(=O)C2=C(C1)NC1=C(C(=O)CC(C)(C)C1)C2c1ccc([N+](=O)[O-])c(OCc2ccccc2)c1 |
| 148 to 154 | CC(=O)N(CC(=O)O)c1c(C(=O)c2ccccc2)[nH]c2cc(Cl)ccc12 |
| 134 to 136 | C=CCc1c(O)c(Cl)cc(F)c1N1C(=O)c2ccccc2C1=O |
| 211 to 215 | Cc1ccccc1C(=O)c1ccc(Nc2ccccc2NS(=O)(=O)c2ccccc2)cc1Cl |
| 191 to 200 | COc1cc(C)nc(NC(=O)NS(=O)(=O)c2cccc3c2S(=O)(=O)C(C)(C)S3(=O)=O)n1 |
| 217 | O=C1C=CC(=O)N1c1ccc(S(=O)(=O)C(I)I)cc1 |
| 164 to 165 | CCOc1cc2c(C)c(CCN3CCN(c4ccccc4)CC3)c(=O)oc2cc1OC |
| 142 to 143 | COc1ccc(C(=O)Cc2c(Cl)cncc2Cl)c2c1OCCCCO2 |
| 206 to 208 | CCOC(=O)C(Cc1cc2ccccc2[nH]c1=O)NC(=O)c1ccc(OC)cc1 (stereo not drawn) |
| 119 to 120 | COc1ccc(C(=O)Cc2c(Cl)cncc2Cl)cc1OC1CCCC1 |
| 151 to 153 | OCc1ccccc1NCc1c(O)ccc2c1CCCO2 |
| 83 to 84 | COC(=O)C1=Cc2cc(Br)ccc2CCC1 |
| 105 to 106 | C=CCN(CC=C)S(=O)(=O)c1ccc([N+](=O)[O-])cc1[N+](=O)[O-] |
